How the values were obtained:
[1] = molar heat capacity at constant pressure; xn = mol fraction of the nth substance listed; conditions: 101 kPa, Liquid, Small sample (50 mg) DSC
[2] = excess molar enthalpy (molar enthalpy of mixing); xn = mol fraction of the nth substance listed; conditions: 303.15 K, 101 kPa, Liquid, Calvet calorimetry
[3] = xn = mol fraction of the nth substance listed; conditions: 101 kPa, Liquid, Vibrating tube method

CCCCn1cc[n+](C)c1.O=S(=O)([O-])C(F)(F)F [1-butyl-3-methylimidazolium trifluoromethanesulfonate] + CCO
Conditions | mass density, [3] [kg/m3] | molar heat capacity at constant pressure, [1] [J/K/mol]
293.15 K, x1 = 0.0522 | 881 | 128.2
293.15 K, x1 = 0.0982 | 944.5 | 143.3
293.15 K, x1 = 0.1976 | 1041.9 | 175.3
293.15 K, x1 = 0.2999 | 1111.4 | 207.9
293.15 K, x1 = 0.3996 | 1160.3 | 237.9
293.15 K, x1 = 0.4973 | 1196.9 | 267.2
293.15 K, x1 = 0.5923 | 1225.3 | 295.7
293.15 K, x1 = 0.6898 | 1249.1 | 326.5
293.15 K, x1 = 0.7868 | 1268.5 | 355.5
293.15 K, x1 = 0.8756 | 1283.7 | 382.4
293.15 K, x1 = 0.9283 | 1291.6 | 399
298.15 K, x1 = 0.0522 | 876.7 | 130
298.15 K, x1 = 0.0982 | 940.2 | 144.9
298.15 K, x1 = 0.1976 | 1037.7 | 176.8
298.15 K, x1 = 0.2999 | 1107.2 | 209.2
298.15 K, x1 = 0.3996 | 1156.1 | 239.4
298.15 K, x1 = 0.4973 | 1192.8 | 268.9
298.15 K, x1 = 0.5923 | 1221.2 | 297.3
298.15 K, x1 = 0.6898 | 1245 | 328.2
298.15 K, x1 = 0.7868 | 1264.5 | 357.6
298.15 K, x1 = 0.8756 | 1279.7 | 384.5
298.15 K, x1 = 0.9283 | 1287.6 | 401.2
303.15 K, x1 = 0.0522 | 872.5 | 131.8
303.15 K, x1 = 0.0982 | 935.9 | 146.4
303.15 K, x1 = 0.1976 | 1033.4 | 178.3
303.15 K, x1 = 0.2999 | 1103 | 210.6
303.15 K, x1 = 0.3996 | 1152 | 240.9
303.15 K, x1 = 0.4973 | 1188.7 | 270.7
303.15 K, x1 = 0.5923 | 1217.2 | 299
303.15 K, x1 = 0.6898 | 1241 | 330
303.15 K, x1 = 0.7868 | 1260.5 | 359.9
303.15 K, x1 = 0.8756 | 1275.7 | 386.8
303.15 K, x1 = 0.9283 | 1283.7 | 403.7
308.15 K, x1 = 0.0522 | 868.2 | 133.8
308.15 K, x1 = 0.0982 | 931.7 | 148.2
308.15 K, x1 = 0.1976 | 1029.2 | 180
308.15 K, x1 = 0.2999 | 1098.8 | 212.1
308.15 K, x1 = 0.3996 | 1147.9 | 242.6
308.15 K, x1 = 0.4973 | 1184.7 | 272.6
308.15 K, x1 = 0.5923 | 1213.1 | 301
308.15 K, x1 = 0.6898 | 1237 | 332
308.15 K, x1 = 0.7868 | 1256.5 | 362.3
308.15 K, x1 = 0.8756 | 1271.7 | 389.3
308.15 K, x1 = 0.9283 | 1279.7 | 406.3
313.15 K, x1 = 0.0522 | 863.9 | 135.8
313.15 K, x1 = 0.0982 | 927.4 | 150
313.15 K, x1 = 0.1976 | 1025 | 181.7
313.15 K, x1 = 0.2999 | 1094.7 | 213.7
313.15 K, x1 = 0.3996 | 1143.8 | 244.3
313.15 K, x1 = 0.4973 | 1180.6 | 274.6
313.15 K, x1 = 0.5923 | 1209.1 | 303
313.15 K, x1 = 0.6898 | 1233 | 334.1
313.15 K, x1 = 0.7868 | 1252.5 | 364.8
313.15 K, x1 = 0.8756 | 1267.7 | 391.9
313.15 K, x1 = 0.9283 | 1275.8 | 409
318.15 K, x1 = 0.0522 | 859.5 | 138
318.15 K, x1 = 0.0982 | 923 | 152
318.15 K, x1 = 0.1976 | 1020.7 | 183.6
318.15 K, x1 = 0.2999 | 1090.5 | 215.4
318.15 K, x1 = 0.3996 | 1139.6 | 246.2
318.15 K, x1 = 0.4973 | 1176.5 | 276.8
318.15 K, x1 = 0.5923 | 1205 | 305.1
318.15 K, x1 = 0.6898 | 1229 | 336.4
318.15 K, x1 = 0.7868 | 1248.5 | 367.5
318.15 K, x1 = 0.8756 | 1263.8 | 394.6
318.15 K, x1 = 0.9283 | 1271.8 | 411.9

[2]
Conditions | excess molar enthalpy [kcal/mol]
x1 = 0.0987 | 0.23
x1 = 0.2029 | 0.363
x1 = 0.2948 | 0.416
x1 = 0.4016 | 0.424
x1 = 0.4928 | 0.406
x1 = 0.5952 | 0.353
x1 = 0.6832 | 0.291
x1 = 0.8026 | 0.199
x1 = 0.8759 | 0.129

CCOS(=O)(=O)[O-].CCn1cc[n+](C)c1 [1-ethyl-3-methylimidazolium ethyl sulfate] + CCO
Conditions | mass density, [3] [kg/m3] | molar heat capacity at constant pressure, [1] [J/K/mol]
293.15 K, x1 = 0.0157 | 813.7 | 114.9
293.15 K, x1 = 0.05 | 860 | –
293.15 K, x1 = 0.0523 | 862.6 | 124.6
293.15 K, x1 = 0.0978 | 913.4 | 137.1
293.15 K, x1 = 0.0991 | 914.6 | –
293.15 K, x1 = 0.1944 | 996 | 163.7
293.15 K, x1 = 0.3073 | 1063.7 | 194.6
293.15 K, x1 = 0.4109 | 1109.6 | 223.4
293.15 K, x1 = 0.5084 | 1143.2 | 250.8
293.15 K, x1 = 0.5927 | 1167 | 274.9
293.15 K, x1 = 0.6995 | 1191.8 | 305.4
293.15 K, x1 = 0.7883 | 1208.9 | 331.1
293.15 K, x1 = 0.8797 | 1223.9 | 357.4
293.15 K, x1 = 0.9388 | 1232.5 | 374.4
298.15 K, x1 = 0.0157 | 809.5 | 116.8
298.15 K, x1 = 0.05 | 855.9 | –
298.15 K, x1 = 0.0523 | 858.5 | 126.2
298.15 K, x1 = 0.0978 | 909.4 | 138.5
298.15 K, x1 = 0.0991 | 910.6 | –
298.15 K, x1 = 0.1944 | 992.1 | 165
298.15 K, x1 = 0.3073 | 1060 | 195.9
298.15 K, x1 = 0.4109 | 1105.9 | 224.8
298.15 K, x1 = 0.5084 | 1139.6 | 252.3
298.15 K, x1 = 0.5927 | 1163.4 | 276.5
298.15 K, x1 = 0.6995 | 1188.3 | 307.2
298.15 K, x1 = 0.7883 | 1205.4 | 333
298.15 K, x1 = 0.8797 | 1220.5 | 359.4
298.15 K, x1 = 0.9388 | 1229.1 | 376.5
303.15 K, x1 = 0.0157 | 805.3 | 118.6
303.15 K, x1 = 0.05 | 851.8 | –
303.15 K, x1 = 0.0523 | 854.4 | 127.9
303.15 K, x1 = 0.0978 | 905.3 | 139.9
303.15 K, x1 = 0.0991 | 906.6 | –
303.15 K, x1 = 0.1944 | 988.3 | 166.3
303.15 K, x1 = 0.3073 | 1056.3 | 197.2
303.15 K, x1 = 0.4109 | 1102.3 | 226.3
303.15 K, x1 = 0.5084 | 1136 | 254
303.15 K, x1 = 0.5927 | 1159.9 | 278.3
303.15 K, x1 = 0.6995 | 1184.8 | 309
303.15 K, x1 = 0.7883 | 1202 | 335
303.15 K, x1 = 0.8797 | 1217.1 | 361.6
303.15 K, x1 = 0.9388 | 1225.7 | 378.8
308.15 K, x1 = 0.0157 | 801 | 120.7
308.15 K, x1 = 0.05 | 847.7 | –
308.15 K, x1 = 0.0523 | 850.3 | 129.7
308.15 K, x1 = 0.0978 | 901.3 | 141.6
308.15 K, x1 = 0.0991 | 902.6 | –
308.15 K, x1 = 0.1944 | 984.4 | 167.7
308.15 K, x1 = 0.3073 | 1052.6 | 198.8
308.15 K, x1 = 0.4109 | 1098.7 | 227.9
308.15 K, x1 = 0.5084 | 1132.5 | 255.8
308.15 K, x1 = 0.5927 | 1156.4 | 280.3
308.15 K, x1 = 0.6995 | 1181.4 | 311.1
308.15 K, x1 = 0.7883 | 1198.5 | 337.2
308.15 K, x1 = 0.8797 | 1213.7 | 364
308.15 K, x1 = 0.9388 | 1222.3 | 381.3
313.15 K, x1 = 0.0157 | 796.7 | 122.8
313.15 K, x1 = 0.05 | 843.5 | –
313.15 K, x1 = 0.0523 | 846.1 | 131.6
313.15 K, x1 = 0.0978 | 897.3 | 143.2
313.15 K, x1 = 0.0991 | 898.5 | –
313.15 K, x1 = 0.1944 | 980.6 | 169.2
313.15 K, x1 = 0.3073 | 1048.8 | 200.4
313.15 K, x1 = 0.4109 | 1095 | 229.6
313.15 K, x1 = 0.5084 | 1128.9 | 257.6
313.15 K, x1 = 0.5927 | 1152.9 | 282.3
313.15 K, x1 = 0.6995 | 1177.9 | 313.3
313.15 K, x1 = 0.7883 | 1195.1 | 339.5
313.15 K, x1 = 0.8797 | 1210.2 | 366.5
313.15 K, x1 = 0.9388 | 1218.9 | 383.9
318.15 K, x1 = 0.0157 | 792.3 | 125
318.15 K, x1 = 0.05 | 839.2 | –
318.15 K, x1 = 0.0523 | 841.9 | 133.6
318.15 K, x1 = 0.0978 | 893.2 | 145
318.15 K, x1 = 0.0991 | 894.4 | –
318.15 K, x1 = 0.1944 | 976.6 | 170.9
318.15 K, x1 = 0.3073 | 1045.1 | 202.2
318.15 K, x1 = 0.4109 | 1091.4 | 231.5
318.15 K, x1 = 0.5084 | 1125.3 | 259.7
318.15 K, x1 = 0.5927 | 1149.3 | 284.5
318.15 K, x1 = 0.6995 | 1174.4 | 315.6
318.15 K, x1 = 0.7883 | 1191.7 | 342
318.15 K, x1 = 0.8797 | 1206.9 | 369.1
318.15 K, x1 = 0.9388 | 1215.5 | 386.7

[2]
Conditions | excess molar enthalpy [kcal/mol]
x1 = 0.0486 | 0.125
x1 = 0.1198 | 0.26
x1 = 0.1961 | 0.302
x1 = 0.2952 | 0.315
x1 = 0.3917 | 0.297
x1 = 0.4937 | 0.276
x1 = 0.6087 | 0.22
x1 = 0.7017 | 0.171
x1 = 0.7963 | 0.118
x1 = 0.8774 | 0.0731
